Data: the kinase profiling compilation of Christmann-Franck et al. (2016)

How the values were obtained:
Experiment in all cases: radiometric filter-binding kinase assay
[1] = target: CDK9 CCNT1 (human) (UniProt P50750+O60563)
[2] = target: STK24 (human) (UniProt Q9Y6E0)
[3] = target: IRAK1 (human) (UniProt P51617)
[4] = target: PRKCG (human) (UniProt P05129)
[5] = target: ZAP70 (human) (UniProt P43403)
[6] = target: ULK2 (human) (UniProt Q8IYT8)
[7] = target: STK16 (human) (UniProt O75716)
[8] = target: TTBK1 (human) (UniProt Q5TCY1)
[9] = target: TLK1 (human) (UniProt Q9UKI8)
[10] = target: STK33 (human) (UniProt Q9BYT3)
STK33 (human), sequence (Q9BYT3 whole entry, looked up): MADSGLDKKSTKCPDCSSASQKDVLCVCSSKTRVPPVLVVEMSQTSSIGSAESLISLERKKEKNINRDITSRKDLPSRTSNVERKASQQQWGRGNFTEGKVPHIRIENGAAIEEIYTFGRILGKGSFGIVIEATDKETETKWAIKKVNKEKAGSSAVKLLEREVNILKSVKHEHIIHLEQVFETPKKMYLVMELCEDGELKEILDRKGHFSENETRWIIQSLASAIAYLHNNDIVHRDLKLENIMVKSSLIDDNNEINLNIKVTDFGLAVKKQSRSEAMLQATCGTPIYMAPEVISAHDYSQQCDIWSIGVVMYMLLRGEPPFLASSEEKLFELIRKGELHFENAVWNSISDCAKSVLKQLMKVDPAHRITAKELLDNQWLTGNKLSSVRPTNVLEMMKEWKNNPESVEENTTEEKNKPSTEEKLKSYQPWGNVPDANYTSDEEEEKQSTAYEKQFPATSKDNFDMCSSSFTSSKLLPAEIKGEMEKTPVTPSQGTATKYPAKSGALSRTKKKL

[11] = target: WNK1 (human) (UniProt Q9H4A3)
WNK1 (human), sequence (Q9H4A3 whole entry, looked up): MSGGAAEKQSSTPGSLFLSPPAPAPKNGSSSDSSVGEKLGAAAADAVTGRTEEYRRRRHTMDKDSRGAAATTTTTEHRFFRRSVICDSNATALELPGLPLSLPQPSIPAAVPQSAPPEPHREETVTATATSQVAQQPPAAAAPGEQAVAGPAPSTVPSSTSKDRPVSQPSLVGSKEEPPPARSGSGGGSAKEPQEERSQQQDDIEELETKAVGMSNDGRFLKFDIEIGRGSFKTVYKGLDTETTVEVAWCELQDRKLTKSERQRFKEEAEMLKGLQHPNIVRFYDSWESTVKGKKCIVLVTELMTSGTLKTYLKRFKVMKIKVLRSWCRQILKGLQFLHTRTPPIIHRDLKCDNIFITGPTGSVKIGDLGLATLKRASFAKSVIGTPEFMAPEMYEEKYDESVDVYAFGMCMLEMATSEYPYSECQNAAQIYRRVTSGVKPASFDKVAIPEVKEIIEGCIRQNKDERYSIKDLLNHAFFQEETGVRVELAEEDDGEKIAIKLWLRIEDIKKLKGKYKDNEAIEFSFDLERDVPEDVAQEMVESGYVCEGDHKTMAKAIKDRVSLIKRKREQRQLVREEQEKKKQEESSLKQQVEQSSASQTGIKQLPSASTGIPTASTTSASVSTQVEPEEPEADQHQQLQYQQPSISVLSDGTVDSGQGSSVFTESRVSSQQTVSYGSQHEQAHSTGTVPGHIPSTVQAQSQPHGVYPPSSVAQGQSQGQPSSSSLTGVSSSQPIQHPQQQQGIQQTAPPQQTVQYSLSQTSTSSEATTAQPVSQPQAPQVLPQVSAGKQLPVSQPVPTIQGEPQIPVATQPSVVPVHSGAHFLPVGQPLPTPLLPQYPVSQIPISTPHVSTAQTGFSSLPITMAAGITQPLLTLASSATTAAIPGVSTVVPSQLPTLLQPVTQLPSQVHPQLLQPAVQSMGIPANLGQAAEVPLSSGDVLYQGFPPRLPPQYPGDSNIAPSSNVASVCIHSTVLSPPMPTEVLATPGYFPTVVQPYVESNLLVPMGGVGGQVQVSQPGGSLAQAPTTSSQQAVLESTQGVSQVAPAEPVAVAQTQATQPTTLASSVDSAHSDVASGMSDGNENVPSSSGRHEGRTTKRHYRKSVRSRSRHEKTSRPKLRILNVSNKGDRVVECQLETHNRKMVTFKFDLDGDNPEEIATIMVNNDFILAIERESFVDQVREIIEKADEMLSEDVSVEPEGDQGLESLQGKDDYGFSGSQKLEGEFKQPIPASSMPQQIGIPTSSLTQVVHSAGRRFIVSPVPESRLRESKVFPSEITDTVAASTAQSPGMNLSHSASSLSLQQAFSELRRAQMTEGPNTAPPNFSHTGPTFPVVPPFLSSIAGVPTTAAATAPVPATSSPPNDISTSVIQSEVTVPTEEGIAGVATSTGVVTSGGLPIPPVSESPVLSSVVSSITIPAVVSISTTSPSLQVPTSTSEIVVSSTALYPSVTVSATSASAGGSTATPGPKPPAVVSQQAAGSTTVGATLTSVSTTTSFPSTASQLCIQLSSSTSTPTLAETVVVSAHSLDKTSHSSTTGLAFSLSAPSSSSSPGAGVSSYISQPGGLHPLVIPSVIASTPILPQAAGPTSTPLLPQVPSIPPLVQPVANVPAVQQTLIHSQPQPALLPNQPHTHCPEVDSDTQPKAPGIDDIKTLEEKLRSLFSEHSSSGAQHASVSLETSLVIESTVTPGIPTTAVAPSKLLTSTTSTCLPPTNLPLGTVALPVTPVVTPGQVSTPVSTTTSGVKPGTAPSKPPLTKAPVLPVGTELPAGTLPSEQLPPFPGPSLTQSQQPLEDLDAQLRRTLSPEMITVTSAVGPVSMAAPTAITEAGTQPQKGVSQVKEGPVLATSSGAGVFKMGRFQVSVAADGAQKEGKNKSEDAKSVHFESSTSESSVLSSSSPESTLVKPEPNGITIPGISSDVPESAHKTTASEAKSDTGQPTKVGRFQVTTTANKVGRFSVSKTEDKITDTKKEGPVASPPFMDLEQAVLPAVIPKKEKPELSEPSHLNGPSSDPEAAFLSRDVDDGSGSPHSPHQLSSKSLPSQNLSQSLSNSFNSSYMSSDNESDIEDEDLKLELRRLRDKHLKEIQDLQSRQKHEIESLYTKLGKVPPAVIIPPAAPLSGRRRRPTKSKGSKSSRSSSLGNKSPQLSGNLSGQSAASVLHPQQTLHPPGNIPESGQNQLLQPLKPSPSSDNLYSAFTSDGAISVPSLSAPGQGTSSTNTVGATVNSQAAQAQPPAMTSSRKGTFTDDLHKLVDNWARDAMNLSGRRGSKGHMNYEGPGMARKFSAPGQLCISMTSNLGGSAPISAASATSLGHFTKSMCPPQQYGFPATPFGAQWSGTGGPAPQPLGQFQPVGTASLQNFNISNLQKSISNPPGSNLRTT

[12] = target: MYLK (human) (UniProt Q15746)
[13] = target: SIK3 (human) (UniProt Q9Y2K2)
[14] = target: SIK2 (human) (UniProt Q9H0K1)
[15] = target: ULK1 (human) (UniProt O75385)
[16] = target: TSSK1B (human) (UniProt Q9BXA7)
TSSK1B (human), sequence (Q9BXA7 whole entry, looked up): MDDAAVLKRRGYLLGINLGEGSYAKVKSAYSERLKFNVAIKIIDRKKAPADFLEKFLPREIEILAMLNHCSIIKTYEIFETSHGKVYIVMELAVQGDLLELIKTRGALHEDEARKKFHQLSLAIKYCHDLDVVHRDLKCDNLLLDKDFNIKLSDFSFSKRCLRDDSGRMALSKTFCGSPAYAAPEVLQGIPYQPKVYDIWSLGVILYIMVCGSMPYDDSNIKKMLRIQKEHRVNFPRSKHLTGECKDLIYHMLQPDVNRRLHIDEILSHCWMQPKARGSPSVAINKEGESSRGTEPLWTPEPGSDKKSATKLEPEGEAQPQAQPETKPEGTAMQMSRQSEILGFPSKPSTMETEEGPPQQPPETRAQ

[17] = target: CSNK1G2 (human) (UniProt P78368)
[18] = target: DDR2 (human) (UniProt Q16832)
[19] = target: EIF2AK3 (human) (UniProt Q9NZJ5)
[20] = target: TESK1 (human) (UniProt Q15569)
[21] = system: OXSR1 (human), O95747 [T185E]
[22] = target: TEK (human) (UniProt Q02763)
[23] = target: PTK6 (human) (UniProt Q13882)
[24] = target: ABL1 (human) (UniProt P00519)
ABL1 (human), sequence (P00519 whole entry, looked up): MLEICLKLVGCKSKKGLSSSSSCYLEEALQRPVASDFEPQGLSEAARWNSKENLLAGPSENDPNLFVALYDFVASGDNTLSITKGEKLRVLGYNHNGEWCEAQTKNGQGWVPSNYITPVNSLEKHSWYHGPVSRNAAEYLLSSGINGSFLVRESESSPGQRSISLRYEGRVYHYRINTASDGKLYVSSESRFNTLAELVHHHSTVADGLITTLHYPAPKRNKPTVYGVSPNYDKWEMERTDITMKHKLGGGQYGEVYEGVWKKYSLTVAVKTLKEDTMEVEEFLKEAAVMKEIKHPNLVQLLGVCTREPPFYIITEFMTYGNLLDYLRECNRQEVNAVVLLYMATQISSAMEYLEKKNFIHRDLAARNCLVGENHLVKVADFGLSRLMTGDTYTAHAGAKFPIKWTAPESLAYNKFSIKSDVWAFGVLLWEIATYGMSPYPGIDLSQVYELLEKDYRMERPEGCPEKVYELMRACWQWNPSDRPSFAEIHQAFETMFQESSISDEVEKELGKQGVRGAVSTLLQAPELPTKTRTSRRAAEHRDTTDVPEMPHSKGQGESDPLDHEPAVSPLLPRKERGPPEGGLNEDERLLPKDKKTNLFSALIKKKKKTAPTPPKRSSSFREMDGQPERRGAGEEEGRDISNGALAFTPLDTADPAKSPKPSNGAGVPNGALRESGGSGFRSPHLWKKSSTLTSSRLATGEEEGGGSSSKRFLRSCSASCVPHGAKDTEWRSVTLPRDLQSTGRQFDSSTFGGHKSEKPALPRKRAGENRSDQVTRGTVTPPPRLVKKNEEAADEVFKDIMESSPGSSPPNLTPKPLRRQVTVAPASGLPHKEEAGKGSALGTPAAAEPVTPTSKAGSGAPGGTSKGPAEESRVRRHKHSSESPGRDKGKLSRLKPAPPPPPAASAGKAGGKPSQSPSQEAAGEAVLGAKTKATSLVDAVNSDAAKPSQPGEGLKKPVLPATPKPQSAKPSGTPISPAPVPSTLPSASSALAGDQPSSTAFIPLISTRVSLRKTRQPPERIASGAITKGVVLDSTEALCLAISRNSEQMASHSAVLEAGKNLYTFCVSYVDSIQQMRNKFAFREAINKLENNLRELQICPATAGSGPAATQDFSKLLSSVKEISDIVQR

For COc1cc(O)c2c(c1)[C@H]1OC1C[C@H](O)[C@H](O)C(=O)/C=C\C[C@H](C)OC2=O (stereo partly specified), the residual activity ([1]; compound 0.01 µM) was 97%, the residual activity ([1]; compound 0.1 µM) was 117% and the residual activity ([1]; compound 1.0 µM) was 111%. For the same molecule, the residual activity ([2]; compound 0.01 µM) was 106%, the residual activity ([2]; compound 0.1 µM) was 104% and the residual activity ([2]; compound 1.0 µM) was 114%. The residual activity ([3]; compound 0.01 µM) was 97%, the residual activity ([3]; compound 0.1 µM) was 97% and the residual activity ([4]; compound 0.01 µM) was 103%. For the same molecule, the residual activity ([4]; compound 0.1 µM) was 109%, the residual activity ([4]; compound 1.0 µM) was 89% and the residual activity ([5]; compound 0.1 µM) was 101%. It also gave a residual activity ([5]; compound 1.0 µM) of 103%, a residual activity ([6]; compound 0.01 µM) of 94% and a residual activity ([6]; compound 0.1 µM) of 96%. It also gave a residual activity ([7]; compound 0.01 µM) of 94%, a residual activity ([7]; compound 1.0 µM) of 102% and a residual activity ([8]; compound 0.01 µM) of 89%. The residual activity ([8]; compound 0.1 µM) was 82%, the residual activity ([9]; compound 0.01 µM) was 95% and the residual activity ([9]; compound 0.1 µM) was 101%. It also gave a residual activity ([10]; compound 0.01 µM) of 113%, a residual activity ([10]; compound 0.1 µM) of 105% and a residual activity ([10]; compound 1.0 µM) of 113%. It also gave a residual activity ([11]; compound 0.01 µM) of 94%, a residual activity ([11]; compound 0.1 µM) of 107% and a residual activity ([11]; compound 1.0 µM) of 106%. It also gave a residual activity ([12]; compound 0.01 µM) of 108%, a residual activity ([12]; compound 0.1 µM) of 102% and a residual activity ([12]; compound 1.0 µM) of 96%. It also gave a residual activity ([13]; compound 0.01 µM) of 102%, a residual activity ([13]; compound 0.1 µM) of 93% and a residual activity ([13]; compound 1.0 µM) of 94%. For the same molecule, the residual activity ([14]; compound 0.01 µM) was 106%, the residual activity ([14]; compound 0.1 µM) was 107% and the residual activity ([14]; compound 1.0 µM) was 88%. For the same molecule, the residual activity ([15]; compound 0.01 µM) was 91%, the residual activity ([15]; compound 0.1 µM) was 88% and the residual activity ([15]; compound 1.0 µM) was 92%. It also gave a residual activity ([16]; compound 0.01 µM) of 112%, a residual activity ([16]; compound 0.1 µM) of 110% and a residual activity ([16]; compound 1.0 µM) of 99%. For the same molecule, the residual activity ([17]; compound 0.01 µM) was 100%, the residual activity ([17]; compound 0.1 µM) was 100% and the residual activity ([17]; compound 1.0 µM) was 109%. For the same molecule, the residual activity ([18]; compound 0.01 µM) was 91%, the residual activity ([18]; compound 0.1 µM) was 113% and the residual activity ([19]; compound 0.01 µM) was 105%. The residual activity ([19]; compound 0.1 µM) was 92%, the residual activity ([20]; compound 0.1 µM) was 107% and the residual activity ([20]; compound 1.0 µM) was 92%. The residual activity ([21]; compound 0.01 µM) was 104%, the residual activity ([21]; compound 0.1 µM) was 99% and the residual activity ([22]; compound 0.01 µM) was 122%. It also gave a residual activity ([22]; compound 0.1 µM) of 101%, a residual activity ([22]; compound 1.0 µM) of 122% and a residual activity ([23]; compound 0.01 µM) of 101%. It also gave a residual activity ([23]; compound 1.0 µM) of 48%, a residual activity ([24]; compound 0.01 µM) of 96% and a residual activity ([24]; compound 0.1 µM) of 97%. It also gave a residual activity ([24]; compound 1.0 µM) of 105%.
